According to US10426761B2, “Method for treatment of disease caused or aggravated by microorganisms or relieving symptoms thereof” (ARMS Pharmaceutical LLC, priority 2011, dated 2019):

Legend:
P. gingivalis = assay: MIC, CLSI reference method; assay type: cell-based; details: 24 h
Protocol: (§1) Cells were allowed to grow in the presence or absence (growth control) of the test agents for 24 hours. The MIC for each agent was defined as the concentration that induced a 100% growth inhibition (compared to no-drug control).

S. salivarius = assay: MIC, CLSI reference method; assay type: cell-based; details: 24 h, 100% growth inhibition
Protocol: as §1

S. oralis = assay: MIC, CLSI reference method; assay type: cell-based; details: 24 h
Protocol: as §1

S. pyogenes = assay: MIC, CLSI reference method; assay type: cell-based; details: 24 h
Protocol: as §1

S. mutans = assay: MIC, CLSI reference method; assay type: cell-based; details: 24 h
Protocol: as §1

Y. enterocolitica = assay: MIC, CLSI reference method; assay type: cell-based; details: 24 h
Protocol: as §1

S. mitis = assay: MIC, CLSI reference method; assay type: cell-based; details: 24 h
Protocol: as §1

S. pneumonia = assay: MIC, CLSI reference method; assay type: cell-based; details: 24 h
Protocol: as §1

C. glabrata = assay: MIC, CLSI microdilution (Candida); assay type: cell-based
C. krusei = assay: MIC, CLSI microdilution (Candida); assay type: cell-based
F. nucleatum = assay: MIC, CLSI reference method; assay type: cell-based, Fusobacterium nucleatum; details: 24 h
Protocol: as §1

C. albicans = assay: MIC, CLSI microdilution (Candida); assay type: cell-based
C. tropicalis = assay: MIC, CLSI microdilution (Candida); assay type: cell-based
[1] = tested on: Streptococcus salivarius, Candida albicans; assay: in vitro filter insert-based barrier model (glycerin / xanthan gum)
Protocol: To identify further examples of concentrations of glycerin and xanthan gum that can form a barrier effective in preventing the passage of microorganisms, different concentrations of the gum xanthan gum and humectant glycerin were tested (5%-95% glycerin; 0.005%-0.5% xanthan gum) singly and in combination using an in vitro filter insert-based barrier model. […] Glycerin or xanthan gum or their combinations (100 μL aliquots) were overlaid on the surface of the filter to form a barrier. […] Next, 5×10^4 cells of either bacteria or fungi were applied on top of the formed barrier in the filter inserts. Next, we placed these filter inserts on the surface of agar medium (Brain Heart Infusion (BHI) medium for bacteria, Sabouraud Dextrose (SD) medium for fungi) in 6-well plates. The plates along with the filter inserts were incubated overnight for 24 hours at 37° C. The plates were monitored for the presence of bacterial or fungal growth CFUs (colony forming units) in the agar medium as well as in the filter insert.

Compound	MIC (P. gingivalis)	MIC (S. salivarius)	MIC (S. oralis)	MIC (S. pyogenes)	MIC (S. mutans)	MIC (Y. enterocolitica)	MIC (S. mitis)	MIC (S. pneumonia)	MIC (C. glabrata)	MIC (C. krusei)	MIC (F. nucleatum)	MIC (C. albicans)	MIC (C. tropicalis)	concentration at which a barrier was formed when tested alone [1]
[H]/N=C(\N/C(=N/[H])NCCCCCCNC(=N)NC(=N)Nc1ccc(Cl)cc1)Nc1ccc(Cl)cc1 [Chlorhexidine, chlorhexidine gluconate]	19.6 μg/mL chlorhexidine	19.6 μg/mL chlorhexidine	19.6 μg/mL chlorhexidine	19.6 μg/mL chlorhexidine	19.6 μg/mL chlorhexidine	19.6 μg/mL chlorhexidine	19.6 μg/mL chlorhexidine	19.6 μg/mL chlorhexidine	19.6 μg/mL chlorhexidine	19.6 μg/mL chlorhexidine	19.6 μg/mL chlorhexidine	19.6 μg/mL chlorhexidine	19.6 μg/mL chlorhexidine	
OCC(O)CO [glycerin]														greater than or equal to 55%
